Molecules are shown by their SMILES.

The nature of this data set: in vitro. Particulars: human, hek293t cells.
Turning to `Cc1cc(C)c(C(=O)CCl)c(C)c1` [10-C08, 2-chloro-1-(2,4,6-trimethylphenyl)ethan-1-one], the viability at 48 h, 25 µM was found to be 97.8%.

Take `O=C(CCl)c1cn(-c2cccc(C(F)(F)F)c2)nn1` [10-C09, 2-chloro-1-{1-[3-(trifluoromethyl)phenyl]-1H-1,2,3-triazol-4-yl}ethan-1-one]: the viability at 48 h, 25 µM turned out to be 2.55%.

`CCOC(=O)c1c(C)[nH]c(C)c1C(=O)CCl` [10-C10, ethyl 4-(2-chloroacetyl)-2,5-dimethyl-1H-pyrrole-3-carboxylate]: the viability at 48 h, 25 µM turned out to be 101%.

Take `O=C(CCl)Cc1cccc(F)c1` [10-C11, 1-chloro-3-(3-fluorophenyl)propan-2-one]: the viability at 48 h, 25 µM amounted to 38.4%.

Consider `CCc1cccc2c(C(=O)CCl)c[nH]c12` [10-C12, 2-chloro-1-(7-ethyl-1H-indol-3-yl)ethan-1-one], for which the viability at 48 h, 25 µM was determined as 0.148%.

`O=C(CCl)c1ccc(O)cc1O` [10-C14, 2-chloro-1-(2,4-dihydroxyphenyl)ethan-1-one]: the viability at 48 h, 25 µM is 97.4%.

In the case of `Cn1ccnc1C(=O)CCl` [10-C15, 2-chloro-1-(1-methyl-1H-imidazol-2-yl)ethan-1-one], the viability at 48 h, 25 µM is 67.6%.

As to `Cc1cc(C(=O)CCl)c(C)n1-c1ccccn1` [10-C16, 2-chloro-1-[2,5-dimethyl-1-(pyridin-2-yl)-1H-pyrrol-3-yl]ethan-1-one], the viability at 48 h, 25 µM is 79.6%.

With `O=C(CCl)C1CCC2(CC1)CC2` [10-C17, 2-chloro-1-{spiro[2.5]octan-6-yl}ethan-1-one], the viability at 48 h, 25 µM worked out at 60.1%.

For `Cc1cc(-n2c(C)cc(C(=O)CCl)c2C)no1` [10-C18, 2-chloro-1-[2,5-dimethyl-1-(5-methyl-1,2-oxazol-3-yl)-1H-pyrrol-3-yl]ethan-1-one], the viability at 48 h, 25 µM amounted to 0.308%.

For the molecule `O=C(CCl)Cc1ccc(C(F)(F)F)cc1` [10-C19, 1-chloro-3-[4-(trifluoromethyl)phenyl]propan-2-one], the viability at 48 h, 25 µM is 1.02%.

For `N#CC(C(=O)CCl)=C(c1ccc(F)cc1)N1CCOCC1` [10-C20, 4-chloro-2-[(4-fluorophenyl)(morpholin-4-yl)methylidene]-3-oxobutanenitrile], the viability at 48 h, 25 µM amounted to 53.6%.

`O=C1C=CC(=O)N1CCc1ccc(F)cc1` [10-C21, 1-[2-(4-fluorophenyl)ethyl]-2,5-dihydro-1H-pyrrole-2,5-dione]: the viability at 48 h, 25 µM is 21.9%.

Take `CCC(=O)N1CCc2cc(C(=O)CCl)ccc21` [10-C22, 1-[5-(2-chloroacetyl)-2,3-dihydro-1H-indol-1-yl]propan-1-one]: the viability at 48 h, 25 µM was determined as 90.5%.

`Cc1cc(C(=O)CCl)c(C)n1Cc1cccs1` [10-D03, 2-chloro-1-{2,5-dimethyl-1-[(thiophen-2-yl)methyl]-1H-pyrrol-3-yl}ethan-1-one]: the viability at 48 h, 25 µM is 104%.

As for `CC(C)C(=O)Nc1ccc(C(=O)CCl)cc1` [10-D04, N-[4-(2-chloroacetyl)phenyl]-2-methylpropanamide], the viability at 48 h, 25 µM was found to be 30.8%.

For `COC(=O)c1ccc2[nH]cc(C(=O)CCl)c2c1` [10-D05, methyl 3-(2-chloroacetyl)-1H-indole-5-carboxylate], the viability at 48 h, 25 µM worked out at 3.01%.

Regarding `CS(=O)(=O)NCCc1ccc(C(=O)CCl)cc1` [10-D06, N-{2-[4-(2-chloroacetyl)phenyl]ethyl}methanesulfonamide], the viability at 48 h, 25 µM was found to be 18.3%.

For `O=C1C=CC(=O)N1c1ccc2ccccc2c1` [10-D07, 1-(naphthalen-2-yl)-2,5-dihydro-1H-pyrrole-2,5-dione], the viability at 48 h, 25 µM is 74.4%.

For the molecule `Cn1ccc(C(=O)CCl)c1` [10-D08, 2-chloro-1-(1-methyl-1H-pyrrol-3-yl)ethan-1-one], the viability at 48 h, 25 µM turned out to be 1.8%.

As for `CC(=O)Nc1cccc(N2C(=O)C=CC2=O)c1` [10-D09, N-[3-(2,5-dioxo-2,5-dihydro-1H-pyrrol-1-yl)phenyl]acetamide], the viability at 48 h, 25 µM turned out to be 104%.

As to `COc1ccc(C(=O)CCl)cc1Cl` [10-D10, 2-chloro-1-(3-chloro-4-methoxyphenyl)ethan-1-one], the viability at 48 h, 25 µM worked out at 1.84%.

As for `COc1ccc(S(=O)(=O)N2CCSSCC2)cc1C` [10-D11, 5-(4-methoxy-3-methylbenzenesulfonyl)-1,2,5-dithiazepane], the viability at 48 h, 25 µM stood at 105%.

In the case of `Cc1csc(C(C#N)C(=O)CCl)n1` (stereo not drawn) [10-D12, 4-chloro-2-(4-methyl-1,3-thiazol-2-yl)-3-oxobutanenitrile], the viability at 48 h, 25 µM stood at 6.6%.

For the molecule `COCCn1c(C)cc(C(=O)CCl)c1C` [10-D13, 2-chloro-1-[1-(2-methoxyethyl)-2,5-dimethyl-1H-pyrrol-3-yl]ethan-1-one], the viability at 48 h, 25 µM is 110%.

For `CC(Cl)C(=O)c1ccc(C(C)(C)C)cc1` (stereo not drawn) [10-D14, 1-(4-tert-butylphenyl)-2-chloropropan-1-one], the viability at 48 h, 25 µM stood at 77.6%.

Regarding `O=C1C=CC(=O)N1c1ccc(F)c(Cl)c1` [10-D15, 1-(3-chloro-4-fluorophenyl)-2,5-dihydro-1H-pyrrole-2,5-dione], the viability at 48 h, 25 µM stood at 79.2%.

With `O=C(CCl)c1cc(Cl)sc1Cl` [10-D16, 2-chloro-1-(2,5-dichlorothiophen-3-yl)ethan-1-one], the viability at 48 h, 25 µM came out at 1.77%.

For the molecule `O=C1C=CC(=O)N1c1ccccc1F` [10-D17, 1-(2-fluorophenyl)-2,5-dihydro-1H-pyrrole-2,5-dione], the viability at 48 h, 25 µM was found to be 90.3%.

For the molecule `Cc1cc(C(=O)CCl)c(C)n1-c1ccc(Cl)c(Cl)c1` [10-D18, 2-chloro-1-[1-(3,4-dichlorophenyl)-2,5-dimethyl-1H-pyrrol-3-yl]ethan-1-one], the viability at 48 h, 25 µM was 0.282%.

In the case of `CS(=O)(=O)Nc1ccc(C(=O)CCl)cc1` [10-D19, N-[4-(2-chloroacetyl)phenyl]methanesulfonamide], the viability at 48 h, 25 µM was found to be 76.6%.

`O=C(CCl)Cc1c(F)cccc1Cl` [10-D20, 1-chloro-3-(2-chloro-6-fluorophenyl)propan-2-one]: the viability at 48 h, 25 µM was 37%.

With `O=C(Nc1ccc(F)cc1)N1CCSSCC1` [10-D21, N-(4-fluorophenyl)-1,2,5-dithiazepane-5-carboxamide], the viability at 48 h, 25 µM stood at 84%.

Consider `COC(=O)c1c(C)[nH]c(C(=O)C(C)Cl)c1C` (stereo not drawn) [10-D22, methyl 5-(2-chloropropanoyl)-2,4-dimethyl-1H-pyrrole-3-carboxylate], for which the viability at 48 h, 25 µM amounted to 83.7%.

In the case of `CC(C)Oc1ccc2[nH]cc(C(=O)CCl)c2c1` [10-E03, 2-chloro-1-[5-(propan-2-yloxy)-1H-indol-3-yl]ethan-1-one], the viability at 48 h, 25 µM turned out to be 0.825%.

In the case of `Cc1cc(C)cc(-n2c(C)cc(C(=O)CCl)c2C)c1` [10-E04, 2-chloro-1-[1-(3,5-dimethylphenyl)-2,5-dimethyl-1H-pyrrol-3-yl]ethan-1-one], the viability at 48 h, 25 µM stood at 19.1%.

Turning to `O=C(CCl)c1c(-c2ccccc2)[nH]c2ccccc12` [10-E05, 2-chloro-1-(2-phenyl-1H-indol-3-yl)ethan-1-one], the viability at 48 h, 25 µM was determined as 14.1%.

With `Cc1cc(C(=O)C(C)Cl)c(C)n1Cc1ccco1` (stereo not drawn) [10-E06, 2-chloro-1-{1-[(furan-2-yl)methyl]-2,5-dimethyl-1H-pyrrol-3-yl}propan-1-one], the viability at 48 h, 25 µM came to 105%.

As for `CSc1ccc(C(=O)CCl)cc1` [10-E07, 2-chloro-1-[4-(methylsulfanyl)phenyl]ethan-1-one], the viability at 48 h, 25 µM worked out at 1.88%.

With `CC(C)C(=O)Nc1ccc(C(=O)C(C)Cl)cc1` (stereo not drawn) [10-E08, N-[4-(2-chloropropanoyl)phenyl]-2-methylpropanamide], the viability at 48 h, 25 µM is 100%.

On to `O=C(CCl)c1ccc2c(c1)CCN(C(=O)C(F)(F)F)C2` [10-E09, 1-[6-(2-chloroacetyl)-1,2,3,4-tetrahydroisoquinolin-2-yl]-2,2,2-trifluoroethan-1-one], for which the viability at 48 h, 25 µM amounted to 4.03%.

Consider `Cc1cc(C(=O)C(C)Cl)c(C)n1-c1ccc(OC(F)F)cc1` (stereo not drawn) [10-E10, 2-chloro-1-{1-[4-(difluoromethoxy)phenyl]-2,5-dimethyl-1H-pyrrol-3-yl}propan-1-one], for which the viability at 48 h, 25 µM was determined as 84.6%.

Take `O=C(CCl)C1CCCC2(CC2)C1` (stereo not drawn) [10-E11, 2-chloro-1-{spiro[2.5]octan-5-yl}ethan-1-one]: the viability at 48 h, 25 µM was 79.6%.

`CCn1c(-c2ccccc2)c(C(=O)CCl)c2ccccc21` [10-E12, 2-chloro-1-(1-ethyl-2-phenyl-1H-indol-3-yl)ethan-1-one]: the viability at 48 h, 25 µM turned out to be 0.509%.

`CCn1ncc(C(=O)CCl)n1` [10-E13, 2-chloro-1-(2-ethyl-2H-1,2,3-triazol-4-yl)ethan-1-one]: the viability at 48 h, 25 µM is 87.2%.

For `Cn1c(N)c(C(=O)CCl)c(=O)n(C)c1=O` [10-E14, 6-amino-5-(2-chloroacetyl)-1,3-dimethyl-1,2,3,4-tetrahydropyrimidine-2,4-dione], the viability at 48 h, 25 µM is 89.9%.

With `O=C(CCl)Cc1ccc(Cl)c(Cl)c1` [10-E15, 1-chloro-3-(3,4-dichlorophenyl)propan-2-one], the viability at 48 h, 25 µM was 1.56%.

With `O=C(CCl)c1cc(Cl)ccc1Cl` [10-E16, 2-chloro-1-(2,5-dichlorophenyl)ethan-1-one], the viability at 48 h, 25 µM amounted to 4.26%.

Turning to `O=C(CCl)Cc1cccc(Cl)c1` [10-E17, 1-chloro-3-(3-chlorophenyl)propan-2-one], the viability at 48 h, 25 µM was 1.29%.

On to `CCS(=O)(=O)N1CCc2cc(C(=O)CCl)ccc21` [10-E18, 2-chloro-1-[1-(ethanesulfonyl)-2,3-dihydro-1H-indol-5-yl]ethan-1-one], for which the viability at 48 h, 25 µM came to 1.16%.

In the case of `O=C(CCl)Cc1ccc(F)cc1Cl` [10-E19, 1-chloro-3-(2-chloro-4-fluorophenyl)propan-2-one], the viability at 48 h, 25 µM was found to be 1.31%.

Regarding `O=C1C=CC(=O)N1CCc1ccccc1` [10-E20, 1-(2-phenylethyl)-2,5-dihydro-1H-pyrrole-2,5-dione], the viability at 48 h, 25 µM came to 4.04%.

`O=C(O)C(c1ccccc1)N1C(=O)C=CC1=O` (stereo not drawn) [10-E21, 2-(2,5-dioxo-2,5-dihydro-1H-pyrrol-1-yl)-2-phenylacetic acid]: the viability at 48 h, 25 µM worked out at 92.4%.

Turning to `O=C(O)c1csc(C(=O)CCl)c1` [10-E22, 5-(2-chloroacetyl)thiophene-3-carboxylic acid], the viability at 48 h, 25 µM stood at 91.8%.

What is called viability is a read-out of living cells in per cent, often relative to untreated cells.

The values are drawn from publication PMC11995724, “Antibiotic target discovery by integrated phenotypic and activity-based profiling of electrophilic fragments” (Cell chemical biology, 2025).
